# Assay results reported in paper PMC8766756, “Insights on Cancer Cell Inhibition, Subcellular Activities, and Kinase Profile of Phenylacetamides Pending 1H-Imidazol-5-One Variants” (Frontiers in Pharmacology, 2022).
# “And” between values parts separate entries of the source, which are not always exact repeats. Identical values can stand only once.
# Key:
# Assay in all cases: PamChip tyrosine kinase microarray
# Type in all cases: biochemical
# Details in all cases: 0.1 µM, HL60 lysate
# [1] = biological target: T1, ALK (Q9UM73) (Homo sapiens, UniProt Q9UM73)
# T1 construct: purchased PamGene (PamChip PTK array, Upstream Kinase Analysis)
# Experimental: (§1) The reproducible high potency of KIM-161 on leukemia cell lines was initially speculated to encompass Src tyrosine kinase inhibition. Even so, we also suspected that KIM-161 might be affecting other tyrosine kinases because the HL60 cells are not among the most Src-dependent highly proliferative cells ([Collins, 1987]). Therefore, a profiling of the kinase activities was performed after treatment with KIM-161 using PamChip® tyrosine kinase microarray. This analysis is based on incubation of cell lysate with 3D microarray that projects peptides specific for 143 tyrosine kinases. If a kinase is modified in the cells, it will be detected by phosphorylating its specific peptide in the microarray.
# (§2) This test measured the activities of an array of tyrosine kinases of treated HL60 cells compared to the control (untreated cells) after incubation with KIM-161 for 48 h at concentrations of 0.001, 0.01, 0.1, 1.0, 10, and 50 µM. The log fold change (LFC) heat map was initially used to identify significant peptides affected at each concentration (Figure 5).
# (§3) An Upstream Kinase Tool was used to generate a putative list of kinases responsible for phosphorylating the phosphosites on the PamChip®. It is an interpretation and is highly dependent on the contents of the underlying phosphorylation databases. Kinase score (Table 2) was used for ranking kinases based on their significance and specificity in terms of the set of peptides used for the corresponding kinase. Kinase statistics indicates the overall change of the peptide set that represents a certain kinase. Kinase statistics value of <0 indicates lower kinase activity in the lysate spiked with the compound and vice versa. Table 2 lists the 20 most changed kinases within treated HL60 cell lysates by 0.1 μM KIM-161.
# (§4) Every compound had spiked into a leukemic (AML) cell line HL60 lysate at different concentrations (0.001, 0.01, 0.1, 1, 10, and 50 μM). In addition, DMSO had also spiked at a low concentration (2% v/v) to the HL60 lysate as the control. The samples were profiled on PamGene's tyrosine kinase (PTK) arrays in technical replicates, covering a total of 196 phosphorylation sites. The frozen leukemic HL60 cultured cell pellet was sent to PamGene. At PamGene, the cells were lysed in the presence of the lysis buffer and proteases inhibitor cocktail. The protein concentration was measured using the standard Bradford assay as per the PamGene SOPs. These lysates were further used for generating the PTK activity profiles. For spiking, KIM-161 was received in powder form and dissolved in DMSO at the PamGene facility, followed by storing it at −20°C in small aliquots. PamGene used its in-house bioinformatics toolbox in combination with other methods to generate the hypotheses of signaling pathways.
# [2] = biological target: T2, Arg (P42684) (Homo sapiens, UniProt P42684)
# T2 construct: purchased PamGene (PamChip PTK array, Upstream Kinase Analysis)
# Experimental: as §1, §2, §3, §4
# [3] = biological target: T3, BLK (P51451) (Homo sapiens, UniProt P51451)
# T3 construct: purchased PamGene (PamChip PTK array, Upstream Kinase Analysis)
# Experimental: as §1, §2, §3, §4
# [4] = biological target: T4, CCK4/PTK7 (Q13308) (Homo sapiens, UniProt Q13308)
# T4 construct: purchased PamGene (PamChip PTK array, Upstream Kinase Analysis)
# T4 sequence (Q13308 31-1070): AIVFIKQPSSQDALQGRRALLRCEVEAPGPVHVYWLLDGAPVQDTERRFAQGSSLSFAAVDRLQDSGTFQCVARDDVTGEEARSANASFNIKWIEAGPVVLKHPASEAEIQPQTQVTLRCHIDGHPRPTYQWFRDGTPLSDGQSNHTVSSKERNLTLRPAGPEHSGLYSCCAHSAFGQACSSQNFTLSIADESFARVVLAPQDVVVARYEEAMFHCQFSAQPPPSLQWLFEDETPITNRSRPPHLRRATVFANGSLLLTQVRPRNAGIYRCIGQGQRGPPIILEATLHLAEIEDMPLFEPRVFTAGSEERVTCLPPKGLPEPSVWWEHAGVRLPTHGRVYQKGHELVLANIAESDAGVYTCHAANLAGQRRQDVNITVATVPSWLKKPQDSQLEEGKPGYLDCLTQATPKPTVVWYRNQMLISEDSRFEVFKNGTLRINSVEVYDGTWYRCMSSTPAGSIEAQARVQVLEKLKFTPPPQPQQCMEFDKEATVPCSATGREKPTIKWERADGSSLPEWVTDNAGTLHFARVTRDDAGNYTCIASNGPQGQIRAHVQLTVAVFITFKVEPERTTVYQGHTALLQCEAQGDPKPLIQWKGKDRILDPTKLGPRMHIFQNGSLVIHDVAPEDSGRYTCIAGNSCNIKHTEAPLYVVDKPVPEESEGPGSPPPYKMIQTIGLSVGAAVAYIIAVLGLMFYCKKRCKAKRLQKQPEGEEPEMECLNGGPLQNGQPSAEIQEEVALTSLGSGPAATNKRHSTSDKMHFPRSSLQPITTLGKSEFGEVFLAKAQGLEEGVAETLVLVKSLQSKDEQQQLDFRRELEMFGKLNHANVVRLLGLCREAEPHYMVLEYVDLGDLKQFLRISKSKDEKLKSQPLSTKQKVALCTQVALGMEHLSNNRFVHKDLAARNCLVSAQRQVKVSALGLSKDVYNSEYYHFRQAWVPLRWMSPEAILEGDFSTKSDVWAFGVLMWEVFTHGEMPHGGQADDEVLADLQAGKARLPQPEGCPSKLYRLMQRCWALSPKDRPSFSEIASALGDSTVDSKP
# Experimental: as §1, §2, §3, §4
# [5] = biological target: T5, Fer (P16591) (Homo sapiens, UniProt P16591)
# T5 construct: purchased PamGene (PamChip PTK array, Upstream Kinase Analysis)
# Experimental: as §1, §2, §3, §4
# [6] = biological target: T6, PDGFR[alpha] (P16234) (Homo sapiens, UniProt P16234)
# T6 construct: purchased PamGene (PamChip PTK array, Upstream Kinase Analysis)
# Experimental: as §1, §2, §3, §4
# T6 sequence (P16234 24-1089): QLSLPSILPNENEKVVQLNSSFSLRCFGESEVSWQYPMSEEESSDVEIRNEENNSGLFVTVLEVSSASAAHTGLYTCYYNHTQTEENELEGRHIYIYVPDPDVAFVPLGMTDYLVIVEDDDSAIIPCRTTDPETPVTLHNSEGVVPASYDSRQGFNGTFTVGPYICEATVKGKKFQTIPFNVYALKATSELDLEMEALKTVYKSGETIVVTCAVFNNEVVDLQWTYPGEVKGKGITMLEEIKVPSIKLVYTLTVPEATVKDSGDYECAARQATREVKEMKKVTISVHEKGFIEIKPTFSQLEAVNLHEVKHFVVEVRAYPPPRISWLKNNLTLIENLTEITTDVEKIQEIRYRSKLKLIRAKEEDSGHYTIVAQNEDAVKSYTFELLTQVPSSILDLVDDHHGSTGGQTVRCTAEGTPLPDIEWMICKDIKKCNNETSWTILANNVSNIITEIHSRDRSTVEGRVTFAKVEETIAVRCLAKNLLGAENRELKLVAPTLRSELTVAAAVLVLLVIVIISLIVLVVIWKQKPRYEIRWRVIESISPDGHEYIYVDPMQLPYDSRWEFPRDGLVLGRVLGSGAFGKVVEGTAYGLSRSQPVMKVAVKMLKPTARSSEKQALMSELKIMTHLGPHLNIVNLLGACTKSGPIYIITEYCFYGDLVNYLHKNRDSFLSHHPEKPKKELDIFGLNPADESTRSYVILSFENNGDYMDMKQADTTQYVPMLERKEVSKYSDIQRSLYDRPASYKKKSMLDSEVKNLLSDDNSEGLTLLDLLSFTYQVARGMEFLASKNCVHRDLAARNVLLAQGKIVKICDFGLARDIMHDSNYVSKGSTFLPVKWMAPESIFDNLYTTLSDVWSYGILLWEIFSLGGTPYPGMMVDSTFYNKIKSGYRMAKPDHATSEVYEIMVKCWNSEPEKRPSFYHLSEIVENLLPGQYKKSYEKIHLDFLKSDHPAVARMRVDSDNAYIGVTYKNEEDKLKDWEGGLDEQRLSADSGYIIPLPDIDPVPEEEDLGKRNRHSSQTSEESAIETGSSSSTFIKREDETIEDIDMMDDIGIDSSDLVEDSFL
# T5 sequence (P16591 whole entry): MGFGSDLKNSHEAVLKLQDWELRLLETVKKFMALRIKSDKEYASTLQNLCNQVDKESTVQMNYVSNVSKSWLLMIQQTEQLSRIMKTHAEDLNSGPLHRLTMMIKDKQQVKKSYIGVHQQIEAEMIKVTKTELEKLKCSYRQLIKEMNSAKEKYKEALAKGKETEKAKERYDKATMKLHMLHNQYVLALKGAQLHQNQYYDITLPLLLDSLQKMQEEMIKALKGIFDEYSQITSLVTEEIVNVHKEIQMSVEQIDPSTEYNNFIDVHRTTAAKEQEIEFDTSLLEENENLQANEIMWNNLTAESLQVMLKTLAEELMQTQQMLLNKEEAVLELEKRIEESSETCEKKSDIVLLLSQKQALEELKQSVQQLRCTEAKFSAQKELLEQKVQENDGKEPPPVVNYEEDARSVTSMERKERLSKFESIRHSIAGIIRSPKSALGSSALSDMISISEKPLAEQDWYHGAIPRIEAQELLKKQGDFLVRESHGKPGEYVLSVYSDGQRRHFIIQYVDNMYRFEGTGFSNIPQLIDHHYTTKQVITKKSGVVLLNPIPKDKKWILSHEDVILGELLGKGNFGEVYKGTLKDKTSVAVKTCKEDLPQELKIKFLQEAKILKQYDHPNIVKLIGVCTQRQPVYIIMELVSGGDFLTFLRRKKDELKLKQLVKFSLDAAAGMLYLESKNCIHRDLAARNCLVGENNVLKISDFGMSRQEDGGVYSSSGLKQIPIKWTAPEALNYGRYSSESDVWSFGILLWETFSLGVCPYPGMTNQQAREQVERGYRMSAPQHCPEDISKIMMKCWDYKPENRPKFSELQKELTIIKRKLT
# T2 sequence (P42684 whole entry): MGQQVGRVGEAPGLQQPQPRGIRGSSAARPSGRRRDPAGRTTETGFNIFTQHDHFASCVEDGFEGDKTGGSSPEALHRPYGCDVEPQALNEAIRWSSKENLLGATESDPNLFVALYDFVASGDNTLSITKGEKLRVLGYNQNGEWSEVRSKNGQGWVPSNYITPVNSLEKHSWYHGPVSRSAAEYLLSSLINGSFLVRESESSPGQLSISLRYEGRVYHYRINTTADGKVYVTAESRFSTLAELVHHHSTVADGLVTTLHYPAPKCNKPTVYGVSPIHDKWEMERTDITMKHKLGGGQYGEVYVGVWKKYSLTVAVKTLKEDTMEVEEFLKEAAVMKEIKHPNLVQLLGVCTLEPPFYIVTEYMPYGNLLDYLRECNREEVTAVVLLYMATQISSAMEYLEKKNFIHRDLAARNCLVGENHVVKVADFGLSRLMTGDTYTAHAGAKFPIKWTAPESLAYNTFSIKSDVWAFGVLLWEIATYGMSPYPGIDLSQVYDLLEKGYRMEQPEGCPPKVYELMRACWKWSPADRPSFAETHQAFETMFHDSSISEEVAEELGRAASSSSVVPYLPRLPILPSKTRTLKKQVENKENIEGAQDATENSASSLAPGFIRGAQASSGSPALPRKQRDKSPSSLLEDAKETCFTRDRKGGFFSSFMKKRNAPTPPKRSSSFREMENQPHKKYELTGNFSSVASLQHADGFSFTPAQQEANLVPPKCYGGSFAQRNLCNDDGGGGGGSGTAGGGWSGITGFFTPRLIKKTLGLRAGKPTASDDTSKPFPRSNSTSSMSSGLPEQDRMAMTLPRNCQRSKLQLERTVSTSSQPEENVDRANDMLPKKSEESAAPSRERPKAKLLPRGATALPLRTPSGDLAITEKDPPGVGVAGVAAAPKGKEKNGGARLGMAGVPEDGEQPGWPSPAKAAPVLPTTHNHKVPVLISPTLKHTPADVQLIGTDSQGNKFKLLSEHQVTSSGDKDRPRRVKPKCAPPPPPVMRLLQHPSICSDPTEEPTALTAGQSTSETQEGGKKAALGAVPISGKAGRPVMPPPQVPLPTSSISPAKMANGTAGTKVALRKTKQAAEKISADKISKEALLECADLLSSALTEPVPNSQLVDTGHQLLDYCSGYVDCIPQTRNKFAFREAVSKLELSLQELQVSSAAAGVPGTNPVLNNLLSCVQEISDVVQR
# T3 sequence (P51451 whole entry): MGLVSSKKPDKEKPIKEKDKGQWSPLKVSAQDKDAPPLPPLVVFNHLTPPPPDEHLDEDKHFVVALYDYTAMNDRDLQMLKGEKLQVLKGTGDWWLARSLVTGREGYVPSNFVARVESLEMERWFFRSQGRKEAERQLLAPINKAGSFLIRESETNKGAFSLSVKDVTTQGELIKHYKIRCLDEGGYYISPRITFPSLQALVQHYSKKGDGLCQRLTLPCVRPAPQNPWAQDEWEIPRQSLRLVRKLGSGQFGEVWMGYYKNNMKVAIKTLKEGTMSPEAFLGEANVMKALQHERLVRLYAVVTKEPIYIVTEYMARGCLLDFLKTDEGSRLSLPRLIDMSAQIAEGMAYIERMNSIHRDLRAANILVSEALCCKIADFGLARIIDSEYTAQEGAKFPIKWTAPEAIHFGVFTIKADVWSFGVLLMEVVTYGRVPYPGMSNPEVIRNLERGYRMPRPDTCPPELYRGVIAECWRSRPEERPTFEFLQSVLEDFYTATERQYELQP
compound,measurement,setting,value
"COc1ccc(/C=C2\N=C(C)N(c3ccc(CC(=O)NCc4ccccc4)cc3)C2=O)cc1 [Compound 4c, (Z)-N-Benzyl-2-(4-(4-(4-methoxybenzylidene)-2-methyl-5-oxo-4,5-dihydro-1H-imidazol-1-yl)phenyl)acetamide]",Mean Final score (Kinase score),[1],2.186
same,Mean Kinase Statistic,[1],-1.125
same,Mean Significance Score,[1],2.048
same,Mean Specificity Score,[1],0.1497
same,Mean Final score (Kinase score),[2],2.115
same,Mean Kinase Statistic,[2],-1.085
same,Mean Significance Score,[2],2.048
same,Mean Specificity Score,[2],0.07369
same,Mean Final score (Kinase score),[3],1.48
same,Mean Kinase Statistic,[3],-1.015
same,Mean Significance Score,[3],1.433
same,Mean Specificity Score,[3],0.07394
same,Mean Significance Score,[4],1.989
same,Mean Specificity Score,[4],0.5841
same,Mean Final score (Kinase score),[4]; listed as KIM-161,2.60 and 2.5986
same,Mean Final score (Kinase score),[5],2.491
same,Mean Kinase Statistic,[5],-1.259
same,Mean Significance Score,[5],2.048
same,Mean Specificity Score,[5],0.455
same,Mean Final score (Kinase score),[6],1.95
same,Mean Kinase Statistic,[6],-1.208
same,Mean Significance Score,[6],1.701
same,Mean Specificity Score,[6],0.3388
